Literature values as cited in PubChem BioAssay AID1259409 (Chemical Carcinogenesis Research Information System (CCRIS), 2018).

System: rodent chemically induced tumor inhibition, incidence and multiplicity
Assay: CCRIS tumor inhibitor studies
Conditions: Route [Inhibitor]: ORAL

O=[Se](O)O
tumour outcome (control, treated, inhibition, significance) (Carcinogen: N-METHYL-N-NITROSOUREA, 684-93-5, Dose [Inhibitor]: 5 MG IN DIET DAILY STARTING AT AGE 5 WK 2 WK PRIOR TO FIRST CARCINOGEN TREATMENT AND CONTINUING FOR DURATION OF STUDY (S, Species: HAMSTER, Strain/Sex: SYRIAN/MALE, Target Tissue: Type of Lesion: TRACHEA: NEOPLASM, Dose [Carcinogen]: 0.5% SOLUTION (PH 5) 1/WK FOR 12 WK, Promoter: NONE USED): 11/34 (32%), 11/31 (35%), -9%, not significant | tumour outcome (control, treated, inhibition, significance) (Carcinogen: N-METHYL-N-NITROSOUREA, 684-93-5, Dose [Inhibitor]: 5 MG/KG IN DIET DAILY STARTING 7 D AFTER CARCINOGEN TREATMENT AND CONTINUING FOR DURATION OF STUDY (STUDY DURATION: 90 D, Species: RAT, Strain/Sex: SPRAGUE-DAWLEY/FEMALE, Target Tissue: Type of Lesion: MAMMARY GLAND: ADENOCARCINOMA, Dose [Carcinogen]: 50 MG/KG BW IN 0.9% SALINE ONCE AT 50 D OF AGE, Promoter: NONE): 95%, 85%, 11%, not calculated | tumour outcome (control, treated, inhibition, significance) (Carcinogen: N-NITROSOBIS(2-OXOPROPYL)AMINE, 60599-38-4, Dose [Inhibitor]: 0, 4 PPM IN DRINKING WATER BEGINNING POST CARCINOGEN TREATMENT AND CONTINUING FOR 37 WK (STUDY DURATION: 40 WK), Species: HAMSTER, Strain/Sex: SYRIAN/FEMALE, Target Tissue: Type of Lesion: PANCREAS: ADENOCARCINOMA, Dose [Carcinogen]: 10 MG/KG 1/WK FOR 3 WK, Promoter: NONE USED): 11/28 (39%), 9/30 (30%), 23%, not calculated | tumour outcome (control, treated, inhibition, significance) (Carcinogen: NITROSOMETHYL-3-CARBOXYPROPYLAMINE, 61445-55-4, Dose [Inhibitor]: 0, 0.35 PPM IN DIET BEGINNING 1 WK PRIOR TO CARCINOGEN DOSE AND CONTINUED FOR DURATION OF STUDY (STUDY DURATION: LIFETIM, Species: RAT, Strain/Sex: F344/FEMALE, Target Tissue: Type of Lesion: BLADDER: TUMORS, Dose [Carcinogen]: 20 ML OF A 600 MG/L SOLUTION IN DRINKING WATER 5 D/WK FOR 28 WK, Promoter: NONE USED): 18/20 (90%), 18/20 (90%), 0%, not significant | tumour outcome (control, treated, inhibition, significance) (Carcinogen: NITROSOMETHYL-3-CARBOXYPROPYLAMINE, 61445-55-4, Dose [Inhibitor]: 0, 0.7 PPM IN DIET BEGINNING 1 WK PRIOR TO CARCINOGEN DOSE AND CONTINUED FOR DURATION OF STUDY (STUDY DURATION: LIFETIME, Species: RAT, Strain/Sex: F344/FEMALE, Target Tissue: Type of Lesion: BLADDER: TUMORS, Dose [Carcinogen]: 20 ML OF A 600 MG/L SOLUTION IN DRINKING WATER 5 D/WK FOR 28 WK, Promoter: NONE USED): 18/20 (90%), 20/20 (100%), -11%, not significant | tumour outcome (control, treated, inhibition, significance) (Carcinogen: NITROSOMETHYL-3-CARBOXYPROPYLAMINE, 61445-55-4, Dose [Inhibitor]: 0, 1.4 PPM IN DIET BEGINNING 1 WK PRIOR TO CARCINOGEN DOSE AND CONTINUED FOR DURATION OF STUDY (STUDY DURATION: LIFETIME, Species: RAT, Strain/Sex: F344/FEMALE, Target Tissue: Type of Lesion: BLADDER: TUMORS, Dose [Carcinogen]: 20 ML OF A 600 MG/L SOLUTION IN DRINKING WATER 5 D/WK FOR 28 WK, Promoter: NONE USED): 18/20 (90%), 20/20 (100%), -11%, not significant | tumour outcome (control, treated, inhibition, significance) (Carcinogen: NITROSOMETHYL-3-CARBOXYPROPYLAMINE, 61445-55-4, Dose [Inhibitor]: 0, 2.1 PPM IN DIET BEGINNING 1 WK PRIOR TO CARCINOGEN DOSE AND CONTINUED FOR DURATION OF STUDY (STUDY DURATION: LIFETIME, Species: RAT, Strain/Sex: F344/FEMALE, Target Tissue: Type of Lesion: BLADDER: TUMORS, Dose [Carcinogen]: 20 ML OF A 600 MG/L SOLUTION IN DRINKING WATER 5 D/WK FOR 28 WK, Promoter: NONE USED): 18/20 (90%), 17/20 (85%), 6%, not significant | tumour outcome (control, treated, inhibition, significance) (Carcinogen: NITROSOMETHYLCYCLOHEXYLAMINE, 5432-28-0, Dose [Inhibitor]: 0, 0.35 PPM IN DIET BEGINNING 1 WK PRIOR TO CARCINOGEN DOSE AND CONTINUED FOR DURATION OF STUDY (STUDY DURATION: LIFETIM, Species: RAT, Strain/Sex: F344/FEMALE, Target Tissue: Type of Lesion: ESOPHAGUS: TUMORS, Dose [Carcinogen]: 20 ML OF A 5 MG/L SOLUTION IN DRINKING WATER 5 D/WK FOR 28 WK, Promoter: NONE USED): 17/20 (85%), 17/20 (85%), 0%, not significant | tumour outcome (control, treated, inhibition, significance) (Carcinogen: NITROSOMETHYLCYCLOHEXYLAMINE, 5432-28-0, Dose [Inhibitor]: 0, 0.7 PPM IN DIET BEGINNING 1 WK PRIOR TO CARCINOGEN DOSE AND CONTINUED FOR DURATION OF STUDY (STUDY DURATION: LIFETIME, Species: RAT, Strain/Sex: F344/FEMALE, Target Tissue: Type of Lesion: ESOPHAGUS: TUMORS, Dose [Carcinogen]: 20 ML OF A 5 MG/L SOLUTION IN DRINKING WATER 5 D/WK FOR 28 WK, Promoter: NONE USED): 17/20 (85%), 17/20 (85%), 0% | tumour outcome (control, treated, inhibition, significance) (Carcinogen: NITROSOMETHYLCYCLOHEXYLAMINE, 5432-28-0, Dose [Inhibitor]: 0, 1.4 PPM IN DIET BEGINNING 1 WK PRIOR TO CARCINOGEN DOSE AND CONTINUED FOR DURATION OF STUDY (STUDY DURATION: LIFETIME, Species: RAT, Strain/Sex: F344/FEMALE, Target Tissue: Type of Lesion: ESOPHAGUS: TUMORS, Dose [Carcinogen]: 20 ML OF A 5 MG/L SOLUTION IN DRINKING WATER 5 D/WK FOR 28 WK, Promoter: NONE USED): 17/20 (85%), 16/20 (80%), 6%, not significant | tumour outcome (control, treated, inhibition, significance) (Carcinogen: NITROSOMETHYLCYCLOHEXYLAMINE, 5432-28-0, Dose [Inhibitor]: 0, 2.1 PPM IN DIET BEGINNING 1 WK PRIOR TO CARCINOGEN DOSE AND CONTINUED FOR DURATION OF STUDY (STUDY DURATION: LIFETIME, Species: RAT, Strain/Sex: F344/FEMALE, Target Tissue: Type of Lesion: ESOPHAGUS: TUMORS, Dose [Carcinogen]: 20 ML OF A 5 MG/L SOLUTION IN DRINKING WATER 5 D/WK FOR 28 WK, Promoter: NONE USED): 17/20 (85%), 18/20 (90%), -6%, not significant | tumour outcome (control, treated, inhibition, significance) (Carcinogen: NONE USED, Dose [Inhibitor]: 0.5 PPM IN DIET DAILY STARTING AT AGE 6 WK AND CONTINUING FOR DURATION OF STUDY (STUDY DURATION: 13 MO), Species: MOUSE, Strain/Sex: BALB/FEMALE, Target Tissue: Type of Lesion: MAMMARY GLAND: ADENOCARCINOMA, Promoter: NONE USED): 15/30 (50%), 8/30 (27%), 46%, p<0.05 | tumour outcome (control, treated, inhibition, significance) (Carcinogen: NONE USED, Dose [Inhibitor]: 2 PPM IN DIET DAILY STARTING AT AGE 6 WK AND CONTINUING FOR DURATION OF STUDY (STUDY DURATION: 13 MO), Species: MOUSE, Strain/Sex: BALB/FEMALE, Target Tissue: Type of Lesion: MAMMARY GLAND: ADENOCARCINOMA, Promoter: NONE USED): 15/30 (50%), 6/30 (20%), 60%, p<0.05 | outcome (Carcinogen: UV-B IRRADIATION, Dose [Inhibitor]: 0, 0.5 MG/KG DIET FOR 29 WK BEGINNING 1 WK PRIOR TO CARCINOGEN TREATMENT (STUDY DURATION: 29 WK), Species: MOUSE, Strain/Sex: SKH:HR-1/FEMALE, Target Tissue: Type of Lesion: SKIN: TUMOR, Dose [Carcinogen]: 90 MJ/CM2 3/WK FOR 20 WK, Promoter: NONE USED): 29, 17, 41%, p<0.05 | tumour outcome (control, treated, inhibition, significance) (Dose [Inhibitor]: 0, 3 PPM IN DRINKING WATER AD LIBITUM FOR DURATION OF STUDY (STUDY DURATION: 79 WK), Species: RAT, Strain/Sex: WISTAR/MALE, Target Tissue: Type of Lesion: LIVER: CARCINOMA, Dose [Carcinogen]: 126 UG/WK IN DRINKING WATER FOR 27 WK, Promoter: NONE USED): 61%, 0%, 100%, not calculated | tumour outcome (control, treated, inhibition, significance) (Dose [Inhibitor]: 0, 6 PPM IN DRINKING WATER AD LIBITUM FOR DURATION OF STUDY (STUDY DURATION: 79 WK), Species: RAT, Strain/Sex: WISTAR/MALE, Target Tissue: Type of Lesion: LIVER: CARCINOMA, Dose [Carcinogen]: 126 UG/WK IN DRINKING WATER FOR 27 WK, Promoter: NONE USED): 61%, 0%, 100%, not calculated
